In series [1] the test system is HIV-1 (IIIB). In words: Antiviral assay in MT-4 cells (HIV MT-4 antiviral assay). Type of series: cell-based. As to conditions: Human immunodeficiency virus 1, IIIB, MT4, 120 h, HIV-1 (IIIB) in MT-4 cells, 5 days incubation. In a few lines: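 MT-4 cells infected with HIV-1 IIIB (1:250 diluted stock) and exposed to 1:3 serially diluted compound in RPMI with 10% FBS. Viability read by CellTiter-Glo luminescence after 5 days at 37° C; mock-infected cells and 5 μM AZT as controls.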

The subject of series [2] is pLai RLuc reporter virus. In words: microbe, parasite or virus in culture. Type of series: cell-based, HIV. The procedure: To quantify the amount of protein binding to human serum, compounds were serially diluted (1:3) in DMSO and acoustically transferred onto 384-well assay plates via a Labcyte ECHO robot. Each plate contained up to 8 test compounds, including negative and positive controls, (DMSO, 5 μM AZT respectively). Assay plates were prepared in duplicate, and tested in either CCM (cell culture media) or HS/CCM (human serum/cell culture media). MT-4 cells were first pre-infected with pLai RLuc reporter virus for 2 h at 37° C., then further diluted in either CCM (RPMI media, 10% FBS, 1% P/S) or HS/CCM (RPMI media, 10% FBS, 50% HS, 1% P/S), and subsequently added to each plate using a Biotek Micro Flow dispenser. After a 72-h incubation in a humidified and temperature controlled incubator (37° C.), Renilla Glo (Promega) was added to all assay plates and chemiluminescence read using an Envision plate-reader. […] To determine the amount of protein binding, EC50 fold shifts (or EC50 shifts) were calculated by dividing EC50 (HS/CCM)/EC50 (CCM).

A short description of series [3]: Cytotoxicity assay in MT-4 cells. The series is classed as cell-based, human. As to conditions: human, uninfected MT-4 cells, 5 days incubation; read-out: CC50. In a few lines:
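Infected MT-4 cells (HIV-1 IIIB, fresh 1:250 dilution of concentrated stock) or mock-infected cells exposed to compounds for 5 days at 37 °C. Viability by CellTiter-Glo luminescence; 5 μM AZT positive control, no-drug negative control. Uninfected cells used for cytotoxicity, with 10 μM puromycin as base-level cytotoxicity control.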

The mark [4] stands for this setting: Human immunodeficiency virus 1, 72 h, read-out: Antiviral Serum Shift RLuc 50% HS, HS/CCM (RPMI media, 10% FBS, 50% HS, 1% P/S), 72-h incubation.
The mark [5] stands for this setting: Human immunodeficiency virus 1, 72 h, read-out: Antiviral Serum Shift RLuc CCM, CCM (RPMI media, 10% FBS, 1% P/S), 72-h incubation.

Each structure is given as a SMILES string. Like-named read-outs stand apart in the source and are kept apart here.

Regarding `C[C@]12CN(CCc3cc(F)c(F)cc31)C(=O)c1c(O)c(=O)c(C(=O)NCc3c(F)cc(F)cc3F)cn12` (single isomer, unassigned) [Example 120-2], the values for the EC50 in series [1] (read-out: EC50), in series [2] (setting [4]) and in series [2] (setting [5]) were greater than 59.4 nM, 239 nM and 14 nM, respectively. Besides, the half-maximal cytotoxic concentration (CC50) (as a rule, the concentration at which the toxic effect on the cells reaches its halfway point) at 5 days in series [3] amounted to 11100 nM.

Consider `O=C(NCc1c(F)cc(F)cc1F)c1cn2c(c(O)c1=O)C(=O)N1CCc3ccc(Br)cc3[C@H]2C1` (single isomer, unassigned) [Example 122-1], for which the figures for the EC50 in series [1] (read-out: EC50), in series [2] (setting [4]) and in series [2] (setting [5]) were 2.57 nM, 4.78 nM and 0.534 nM, respectively. For the same compound, in series [3], the CC50 at 5 days was determined as 4740 nM.

With `O=C(NCc1c(F)cc(F)cc1F)c1cn2c(c(O)c1=O)C(=O)N1CCc3ccc(Br)cc3[C@@H]2C1` (single isomer, unassigned) [Example 122-2], the EC50 in series [1] (read-out: EC50) came to 14.4 nM; in series [2] (setting [4]), 298 nM; in series [2] (setting [5]), 3.77 nM. Further, in series [3], the 50% cytotoxic concentration (CC50) at 5 days came out at 4770 nM.

For `O=C(NCc1ccc(F)c(Cl)c1F)c1cn2c(c(O)c1=O)C(=O)N1CCC=C(F)[C@H]2C1` (single isomer, unassigned) [Example 123-1], the EC50 is 2.05 nM in series [1] (read-out: EC50), 3.67 nM in series [2] (setting [4]) and 0.316 nM in series [2] (setting [5]). In series [3], the 50% cytotoxic concentration (CC50) at 5 days stood at 13700 nM.

On to `O=C(NCc1ccc(F)c(Cl)c1F)c1cn2c(c(O)c1=O)C(=O)N1CCC=C(F)[C@@H]2C1` (single isomer, unassigned) [Example 123-2], for which the EC50 is 1.93 nM in series [1] (read-out: EC50), 440 nM in series [2] (setting [4]) and 0.245 nM in series [2] (setting [5]). Besides, in series [3], the half-maximal cytotoxic concentration (CC50) at 5 days stood at 14600 nM.

`O=C(NCc1c(F)cc(F)cc1F)c1cn2c(c(O)c1=O)C(=O)N1Cc3ccc(Cl)cc3C[C@H]2C1` (single isomer, unassigned) [Example 127-1]: the values for the EC50 in series [1] (read-out: EC50), in series [2] (setting [4]) and in series [2] (setting [5]) were 1.38 nM, 2.93 nM and 0.324 nM, respectively. The CC50 at 5 days in series [3] amounted to 5630 nM.

As for `O=C(NCc1ccc(F)cc1F)c1cn2c(c(O)c1=O)C(=O)N1Cc3ccc(Cl)cc3C[C@H]2C1` (single isomer, unassigned) [Example 128-1], the EC50 is 2.15 nM in series [1] (read-out: EC50), 7.61 nM in series [2] (setting [4]) and 0.763 nM in series [2] (setting [5]). Besides, the CC50 at 5 days in series [3] was greater than 47200 nM.

In the case of `O=C(NCc1c(F)cc(F)cc1F)c1cn2c(c(O)c1=O)C(=O)N1Cc3cc(F)c(F)cc3C[C@@H]2C1` (single isomer, unassigned) [Example 159], the EC50 in series [1] (read-out: EC50) stood at 3.52 nM; in series [2] (setting [4]) it was 2.56 nM; in series [2] (setting [5]), 0.976 nM. The CC50 at 5 days in series [3] is greater than 43600 nM.

Regarding `C[C@@]12Cc3cc(F)c(F)cc3CN(C1)C(=O)c1c(O)c(=O)c(C(=O)NCc3c(F)cc(F)cc3F)cn12` (single isomer, unassigned) [Example 191-1], the EC50 in series [1] (read-out: EC50) was found to be 2.61 nM; in series [2] (setting [4]) it was 2.69 nM; in series [2] (setting [5]), 0.611 nM. For the same compound, the CC50 at 5 days in series [3] is 11600 nM.

On to `C[C@]12Cc3cc(F)c(F)cc3CN(C1)C(=O)c1c(O)c(=O)c(C(=O)NCc3c(F)cc(F)cc3F)cn12` (single isomer, unassigned) [Example 191-2], for which the EC50 in series [1] (read-out: EC50) came to 1.44 nM; in series [2] (setting [4]), 1.93 nM; in series [2] (setting [5]) it was 0.361 nM. Further, the 50% cytotoxic concentration (CC50) at 5 days in series [3] worked out at 11800 nM.

As for `O=C(NCc1c(F)cc(F)cc1F)c1cn2c(c(O)c1=O)C(=O)N1CCCC(CF)C2C1` (single isomer, unassigned) [Example 194-1, 6-(fluoromethyl)-12-hydroxy-1,11-dioxo-N-(2,4,6-trifluorobenzyl)-1,4,5,6,7,11-hexahydro-3H-2,7-methanopyrido[1,2-a][1,4]diazonine-10-carboxamide], the EC50 in series [1] (read-out: EC50) amounted to 1.39 nM; in series [2] (setting [5]) it was 0.683 nM; in series [2] (read-out: Antiviral Serum Shift RLuc 50% HS, HS/CCM (RPMI media, 10% FBS, 50% HS, 1% P/S), 72-h incubation), 222 nM. In addition, in series [3], the CC50 at 5 days stood at 10800 nM.

Consider `O=C(NCc1ccc(F)cc1F)c1cn2c(c(O)c1=O)C(=O)N1CCCOC[C@@H]2C1` [Example 1-1, (S)-N-(2,4-difluorobenzyl)-13-hydroxy-1,12-dioxo-1,4,5,7,8,12-hexahydro-3H-2,8-methanopyrido[1,2-d][1,4,7]oxadiazecine-11-carboxamide], for which the figures for the EC50 in series [1] (read-out: EC50), in series [2] (setting [4]) and in series [2] (setting [5]) were 16.5 nM, 4.85 nM and 3.64 nM, respectively. In addition, in series [3], the CC50 at 5 days is greater than 50000 nM.

On to `O=C(NCc1ccc(F)cc1F)c1cn2c(c(O)c1=O)C(=O)N1CCCOC[C@H]2C1` [Example 1-2, (R)-N-(2,4-difluorobenzyl)-13-hydroxy-1,12-dioxo-1,4,5,7,8,12-hexahydro-3H-2,8-methanopyrido[1,2-d][1,4,7]oxadiazecine-11-carboxamide], for which the EC50 amounted to 5.7 nM in series [1] (read-out: EC50), 13.9 nM in series [2] (setting [4]) and 1.37 nM in series [2] (setting [5]). The cytotoxic concentration (CC50) at 5 days in series [3] is 20700 nM.

For `O=C(NCc1c(F)cc(F)cc1F)c1cn2c(c(O)c1=O)C(=O)N1C[C@H]2CCC(F)(F)C1` [Example 3-1, (7R)-4,4-difluoro-12-hydroxy-1,11-dioxo-N-(2,4,6-trifluorobenzyl)-1,4,5,6,7,11-hexahydro-3H-2,7-methanopyrido[1,2-a][1,4]diazonine-10-carboxamide], the EC50 in series [1] (read-out: EC50) turned out to be 4.2 nM; in series [2] (setting [4]) it was 71.5 nM; in series [2] (setting [5]) it was 0.85 nM. In addition, the CC50 at 5 days in series [3] was greater than 40200 nM.

Regarding `O=C(NCc1c(F)cc(F)cc1F)c1cn2c(c(O)c1=O)C(=O)N1C[C@@H]2CCC(F)(F)C1` [Example 3-2, (7S)-4,4-difluoro-12-hydroxy-1,11-dioxo-N-(2,4,6-trifluorobenzyl)-1,4,5,6,7,11-hexahydro-3H-2,7-methanopyrido[1,2-a][1,4]diazonine-10-carboxamide], the EC50 turned out to be 5.4 nM in series [1] (read-out: EC50), 3.86 nM in series [2] (setting [4]) and 1.6 nM in series [2] (setting [5]). For the same compound, the CC50 at 5 days in series [3] is greater than 43300 nM.

Consider `O=C(NCc1ccc(F)cc1F)c1cn2c(c(O)c1=O)C(=O)N1C[C@@H]2CCC(F)(F)C1` [Example 4-2, (7S)-N-(2,4-difluorobenzyl)-4,4-difluoro-12-hydroxy-1,11-dioxo-1,4,5,6,7,11-hexahydro-3H-2,7-methanopyrido[1,2-a][1,4]diazonine-10-carboxamide], for which the EC50 in series [1] (read-out: EC50) worked out at 4.8 nM; in series [2] (setting [4]), 4.36 nM; in series [2] (setting [5]), 1.11 nM. Moreover, the 50% cytotoxic concentration (CC50) at 5 days in series [3] worked out at 10700 nM.

For the compound `O=C(NCc1ccc(F)cc1F)c1cn2c(c(O)c1=O)C(=O)N1CCCCC[C@@H]2C1` [Example 5-1, (8R)-N-(2,4-difluorobenzyl)-13-hydroxy-1,12-dioxo-1,3,4,5,6,7,8,12-octahydro-2,8-methanopyrido[1,2-a][1,4]diazecine-11-carboxamide], the results for the EC50 in series [1] (read-out: EC50), in series [2] (setting [4]) and in series [2] (setting [5]) were 2 nM, 1.24 nM and 0.235 nM, respectively. The CC50 at 5 days in series [3] is 11100 nM.

On to `O=C(NCc1ccc(F)cc1F)c1cn2c(c(O)c1=O)C(=O)N1CCCCC[C@H]2C1` [Example 5-2, (8S)—N-(2,4-difluorobenzyl)-13-hydroxy-1,12-dioxo-1,3,4,5,6,7,8,12-octahydro-2,8-methanopyrido[1,2-a][1,4]diazecine-11-carboxamide], for which the EC50 in series [1] (read-out: EC50) is 2.9 nM; in series [2] (setting [4]), 142 nM; in series [2] (setting [5]), 0.72 nM. The CC50 at 5 days in series [3] stood at 19500 nM.

As for `C[C@@H]1[C@H]2CCCCN1C(=O)c1c(O)c(=O)c(C(=O)NCc3ccc(F)cc3F)cn12` [Example 7, (7R,13R)—N-(2,4-difluorobenzyl)-12-hydroxy-13-methyl-1,11-dioxo-1,4,5,6,7,11-hexahydro-3H-2,7-methanopyrido[1,2-a][1,4]diazonine-10-carboxamide], the results for the EC50 in series [1] (read-out: EC50), in series [2] (setting [4]) and in series [2] (setting [5]) were 1.4 nM, 1.47 nM and 0.28 nM, respectively. In addition, the 50% cytotoxic concentration (CC50) at 5 days in series [3] came out at 8810 nM.

For `C[C@H]1[C@@H]2CCCCN1C(=O)c1c(O)c(=O)c(C(=O)NCc3c(F)cc(F)cc3F)cn12` [Example 8, (7S, 13S)-12-hydroxy-13-methyl-1,11-dioxo-N-(2,4,6-trifluorobenzyl)-1,4,5,6,7,11-hexahydro-3H-2,7-methanopyrido[1,2-a][1,4]diazonine-10-carboxamide], the EC50 in series [1] is 1.5 nM; in series [2] (setting [4]), 1.41 nM; in series [2] (setting [5]), 0.41 nM. Besides, the 50% cytotoxic concentration (CC50) at 5 days in series [3] was found to be 20800 nM.

For the origin of these results see patent publication US12227520B2 (priority 2019, dated 2025).
